Measured values as given in PubChem BioAssay AID256 (DTP/NCI, 2004).
Where “and” joins values, the source holds several entries; their conditions need not be identical. Equal entries are not always repeated. Toxic doses and inconclusive results are not listed. The calls were made as follows: active = survival T/C of 150% or more; inactive = T/C below 125% in these data.

Tested on: CD2F1 mice, L1210 leukemia ip, survival T/C
Test: NCI In Vivo Anticancer Drug Screen. Data for tumor model L1210 Leukemia (intraperitoneal) in CD2F1 (CDF1) mice
Settings: endpoint: mean survival time, higher = longer survival
Procedure, shortened: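 Mice carrying a transplanted tumor received test compound or vehicle alone. The value is the measurement in the treated group divided by that in the vehicle-treated control group.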

[1] = dose: 100.0 mg/kg/injection, schedule: Q04DX003 (ip), vehicle: saline with Tween-80
[2] = dose: 200.0 mg/kg/injection, schedule: Q04DX003 (ip), vehicle: saline with Tween-80
[3] = dose: 400.0 mg/kg/injection, schedule: Q04DX003 (ip), vehicle: saline with Tween-80
[4] = dose: 100.0 mg/kg/injection, schedule: Q01DX009 (ip), vehicle: saline with Tween-80
[5] = dose: 200.0 mg/kg/injection, schedule: Q01DX009 (ip), vehicle: saline with Tween-80
[6] = dose: 400.0 mg/kg/injection, schedule: Q01DX009 (ip), vehicle: saline with Tween-80
[7] = dose: 100.0 mg/kg/injection, schedule: Q04DX003 (ip), vehicle: saline
[8] = dose: 200.0 mg/kg/injection, schedule: Q04DX003 (ip), vehicle: saline
[9] = dose: 400.0 mg/kg/injection, schedule: Q04DX003 (ip), vehicle: saline

Measured: T/C

Cc1ccc(C(C)C)cc1NC(=O)c1ccccc1C(=O)O
inactive: [1] 95 % of control | [2] 95 % of control | [3] 87 % of control

CC(=O)Nc1ccc2c(c1)Cc1cc(NC(C)=O)c(Cl)cc1-2
inactive: [1] 103 % of control | [2] 97 % of control | [3] 98 % of control

COc1cc(/C=N/NC(=O)COc2ccccc2)ccc1O
inactive: [4] 89 % of control | [5] 89 % of control | [6] 94 % of control

S=c1[nH]c2cc(Cl)c(Cl)cc2[nH]1
inactive: dose: 100.0 mg/kg/injection, schedule: Q01DX001 (ip), vehicle: saline 100 % of control | dose: 200.0 mg/kg/injection, schedule: Q01DX001 (ip), vehicle: saline 100 % of control | dose: 400.0 mg/kg/injection, schedule: Q01DX001 (ip), vehicle: saline 102 % of control

Cc1cc(Cl)ccc1[NH-].Cc1cc(Cl)ccc1[NH-].[Cl][Pt+2][Cl]
inactive: dose: 25.0 mg/kg/injection, schedule: Q04DX003 (ip), vehicle: saline with Tween-80 100 % of control | dose: 50.0 mg/kg/injection, schedule: Q04DX003 (ip), vehicle: saline with Tween-80 94 % of control | [1] 94 % of control | [2] 94 % of control | [3] 97 % of control

O=C1CCC(=O)N1CO
inactive: dose: 100.0 mg/kg/injection, schedule: Q01DX009 (ip), vehicle: saline 102 % of control | [7] 106 % of control | dose: 200.0 mg/kg/injection, schedule: Q01DX009 (ip), vehicle: saline 109 % of control | [8] 101 % of control | dose: 400.0 mg/kg/injection, schedule: Q01DX009 (ip), vehicle: saline 111 % of control | [9] 116 % of control

O=C(CBr)c1ccc(I)cc1
inactive: dose: 3.13 mg/kg/injection, schedule: Q04DX003 (ip), vehicle: saline 94 % of control | dose: 6.25 mg/kg/injection, schedule: Q04DX003 (ip), vehicle: saline 98 % of control | dose: 12.5 mg/kg/injection, schedule: Q04DX003 (ip), vehicle: saline 94 % of control | dose: 25.0 mg/kg/injection, schedule: Q04DX003 (ip), vehicle: saline 98 % of control | dose: 50.0 mg/kg/injection, schedule: Q04DX003 (ip), vehicle: saline 98 % of control | [7] 106 % of control

CCOC(=O)c1c(O)csc1N
inactive: [1] 110 % of control | [2] 98 % of control | [3] 98 % of control

CC(=O)NC(Cc1ccc(F)cc1)C(=O)O (stereo not drawn)
inactive: dose: 25.0 mg/kg/injection, schedule: Q01DX009 (ip), vehicle: saline with Tween-80 95 % of control and 97 % of control | dose: 50.0 mg/kg/injection, schedule: Q01DX009 (ip), vehicle: saline with Tween-80 97 % of control and 98 % of control | [4] 95 % of control and 103 % of control | [5] 95 % of control and 101 % of control | [6] 98 % of control and 101 % of control | dose: 800.0 mg/kg/injection, schedule: Q01DX009 (ip), vehicle: saline with Tween-80 97 % of control and 105 % of control

Nc1nc(N)c(N=Nc2cccc(S(=O)(=O)O)c2)c(N)n1
inactive: [1] 107 % of control | [2] 101 % of control | [3] 101 % of control

CCCCCCCC(C)/C=N/NC(=O)c1ccc[n+](C)c1 (stereo not drawn)
inactive: [7] 103 % of control | [8] 101 % of control

Nc1ccc(S(=O)(=O)F)c(Cl)c1
inactive: [4] 97 % of control | [7] 95 % of control | [5] 100 % of control | [8] 101 % of control | [9] 95 % of control
